This is an account of results in US6465613B1, “Hydrophilic somatostatin analogs” (Tulane University, priority 1998, dated 2002).

Positions of bridges follow the written chain, without caps; N, C: chain ends. Non-standard residues stand in square brackets, D forms with d. Residues, ends and D or L forms follow the SMILES beside them. Phe(4-NH2) = Nc1ccc(C[C@H](N)C(=O)O)cc1; Dab = NCC[C@H](N)C(=O)O Some results are limits rather than exact numbers.

The target of test [1] is T1, human SRIF receptor type 1 (Homo sapiens, UniProt P30872).
T1 construct: expressed in transfected cells; host or cells: CHO-K1 cells (membranes)
T1 sequence (P30872 whole entry): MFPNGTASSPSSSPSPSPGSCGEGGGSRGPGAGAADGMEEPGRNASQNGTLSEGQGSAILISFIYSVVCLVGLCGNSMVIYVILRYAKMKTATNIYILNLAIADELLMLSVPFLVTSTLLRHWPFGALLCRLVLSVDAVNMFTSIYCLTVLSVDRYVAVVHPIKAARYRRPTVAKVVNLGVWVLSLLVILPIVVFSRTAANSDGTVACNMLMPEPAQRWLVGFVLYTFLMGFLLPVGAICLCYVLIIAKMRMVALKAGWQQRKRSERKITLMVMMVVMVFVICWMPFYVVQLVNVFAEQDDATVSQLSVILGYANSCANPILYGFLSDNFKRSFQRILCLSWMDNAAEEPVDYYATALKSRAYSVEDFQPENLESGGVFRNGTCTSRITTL
Briefly: Radioligand binding assay, CHO-K1 membranes, 125I-Tyr11-SRIF. The following applies: CHO-K1 cell membranes, 0.05 nM 125I-Tyr11-SRIF. As for the experimental part:
(§1) For this study, cell membranes were obtained from homogenates of CHO-K1 cells (Chinese hamster ovary cells) ectopically expressing one of the five known somatostatin receptor subtypes (the cells were transfected with cDNA encoding a somatostatin receptor subtype, according to standard methods (see, e.g., Ausubel et al., Current Protocols in Molecular Biology, John Wiley & Sons, New York, N.Y., 1994)). […] The final assay volume was 0.3 ml. Incubations were terminated by rapid filtration through GF/C filters pre-soaked in 0.3% polyethylenimine using a 2 Brandel rapid filtration module (48 wells each). Each tube and filter was then washed 3 times with 5 ml aliquots of cold buffer.

Test [2] has as its target T2, human SRIF receptor type 4 (Homo sapiens, UniProt P31391).
T2 construct: expressed in transfected cells; host or cells: CHO-K1 cells (membranes)
The test is described as above. The following applies: CHO-K1 cell membranes, 0.05 nM 125I-Tyr11-SRIF. As for the experimental part:
as §1

Test [3] deals with T3, human SRIF receptor type 3 (Homo sapiens, UniProt P32745).
T3 construct: expressed in transfected cells; host or cells: CHO-K1 cells (membranes)
T3 sequence (P32745 whole entry): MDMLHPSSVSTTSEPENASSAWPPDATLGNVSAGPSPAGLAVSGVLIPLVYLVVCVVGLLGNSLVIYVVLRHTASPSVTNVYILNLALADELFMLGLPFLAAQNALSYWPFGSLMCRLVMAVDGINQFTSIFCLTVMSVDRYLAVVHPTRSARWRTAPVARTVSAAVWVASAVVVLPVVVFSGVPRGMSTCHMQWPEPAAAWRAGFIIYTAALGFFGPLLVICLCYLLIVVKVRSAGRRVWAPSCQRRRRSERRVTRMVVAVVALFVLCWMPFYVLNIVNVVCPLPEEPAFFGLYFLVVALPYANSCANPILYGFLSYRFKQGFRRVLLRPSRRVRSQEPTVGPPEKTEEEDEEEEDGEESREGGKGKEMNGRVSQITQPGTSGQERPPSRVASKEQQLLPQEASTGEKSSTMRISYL
Described as above. The following applies: CHO-K1 cell membranes, 0.05 nM 125I-Tyr11-SRIF. As for the experimental part: as §1

The target in test [4] is T4, human SRIF receptor type 5 (Homo sapiens, UniProt P35346).
T4 construct: expressed in transfected cells; host or cells: CHO-K1 cells (membranes)
T4 sequence (P35346 whole entry): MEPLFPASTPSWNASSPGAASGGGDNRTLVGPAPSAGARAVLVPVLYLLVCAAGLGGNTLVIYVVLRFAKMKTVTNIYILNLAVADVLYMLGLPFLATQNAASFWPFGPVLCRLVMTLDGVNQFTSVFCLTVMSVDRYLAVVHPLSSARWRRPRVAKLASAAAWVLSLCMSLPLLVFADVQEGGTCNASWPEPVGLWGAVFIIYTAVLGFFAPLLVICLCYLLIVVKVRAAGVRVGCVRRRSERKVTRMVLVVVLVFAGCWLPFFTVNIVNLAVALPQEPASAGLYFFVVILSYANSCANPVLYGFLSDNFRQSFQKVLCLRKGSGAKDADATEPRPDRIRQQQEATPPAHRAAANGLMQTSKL
The test is described as above. To be noted: CHO-K1 cell membranes, 0.05 nM 125I-Tyr11-SRIF. As for the experimental part: as §1

In test [5] the target is T5, human SRIF receptor type 2 (Homo sapiens, UniProt P30874).
T5 construct: expressed in transfected cells; host or cells: CHO-K1 cells (membranes)
T5 sequence (P30874 whole entry): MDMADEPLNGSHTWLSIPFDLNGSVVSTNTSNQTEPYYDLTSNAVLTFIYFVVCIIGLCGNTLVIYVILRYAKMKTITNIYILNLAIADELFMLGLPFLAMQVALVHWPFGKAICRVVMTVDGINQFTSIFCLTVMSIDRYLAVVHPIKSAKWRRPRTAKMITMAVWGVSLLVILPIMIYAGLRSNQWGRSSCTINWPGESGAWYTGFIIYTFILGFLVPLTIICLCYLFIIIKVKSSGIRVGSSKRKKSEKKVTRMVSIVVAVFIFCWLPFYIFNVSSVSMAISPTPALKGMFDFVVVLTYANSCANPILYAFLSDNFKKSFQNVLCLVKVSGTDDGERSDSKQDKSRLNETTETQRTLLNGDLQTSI
The test is described as follows: Radioligand binding assay, CHO-K1 membranes, 125I-MK-678. To be noted: CHO-K1 cell membranes. As for the experimental part: as §1

T2 sequence (P31391 whole entry): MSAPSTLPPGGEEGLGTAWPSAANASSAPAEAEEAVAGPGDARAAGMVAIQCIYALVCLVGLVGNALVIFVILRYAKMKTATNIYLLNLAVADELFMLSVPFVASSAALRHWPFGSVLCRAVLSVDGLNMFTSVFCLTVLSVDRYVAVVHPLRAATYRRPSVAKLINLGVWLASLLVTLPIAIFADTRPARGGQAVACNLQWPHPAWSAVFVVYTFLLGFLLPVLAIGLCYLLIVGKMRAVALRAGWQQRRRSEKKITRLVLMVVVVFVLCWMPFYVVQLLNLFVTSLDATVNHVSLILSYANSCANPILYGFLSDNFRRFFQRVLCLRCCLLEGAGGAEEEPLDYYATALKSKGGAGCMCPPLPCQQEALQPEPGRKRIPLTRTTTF

On to `C[C@@H](O)[C@H](NC(=O)[C@@H]1CSSC[C@H](NC(=O)[C@H](CCCCN)NC(=O)[C@H](Cc2ccc(O)cc2)NC(=O)[C@H](CCCCN)NC(=O)[C@H](Cc2ccc(O)cc2)NC(=O)[C@H](N)CCCCN)C(=O)N[C@@H](Cc2ccccc2)C(=O)N[C@H](Cc2c[nH]c3ccccc23)C(=O)N[C@@H](CCCCN)C(=O)N[C@@H]([C@@H](C)O)C(=O)N1)C(N)=O` [JF-05-59, D-Lys-Tyr-Lys-Tyr-Lys-c[Cys-Phe-D-Trp-Lys-Thr-Cys]-Thr-NH2] (H-[dK]YKYKCF[dW]KTCT-NH2; disulfide 6-11), for which the Kd in test [1] came out at 4.1 nM; in test [2], 515 nM; in test [3], 6.4 nM; in test [4], 13.4 nM; in test [5], 0.36 nM.
The like results for `C[C@@H](O)[C@H](NC(=O)[C@@H]1CSSC[C@H](NC(=O)[C@H](CCCNC(=N)N)NC(=O)[C@H](Cc2ccc(O)cc2)NC(=O)[C@H](CCCNC(=N)N)NC(=O)[C@H](Cc2ccc(O)cc2)NC(=O)[C@H](N)CCCNC(=N)N)C(=O)N[C@@H](Cc2ccccc2)C(=O)N[C@H](Cc2c[nH]c3ccccc23)C(=O)N[C@@H](CCCCN)C(=O)N[C@@H]([C@@H](C)O)C(=O)N1)C(N)=O` [JF-05-81, D-Arg-Tyr-Arg-Tyr-Arg-c[Cys-Phe-D-Trp-Lys-Thr-Cys]-Thr-NH2] (H-[dR]YRYRCF[dW]KTCT-NH2; disulfide 6-11) were, in that order, 12.1 nM, greater than 1000 nM, 14.6 nM, 3.3 nM and 0.28 nM.
Take `C[C@@H](O)[C@H](NC(=O)[C@@H]1CSSC[C@H](NC(=O)[C@H](CCCCN)NC(=O)[C@H](Cc2ccc(O)cc2)NC(=O)[C@@H](CCCCN)NC(=O)[C@@H](Cc2ccc(O)cc2)NC(=O)[C@H](CCCCN)NC(=O)[C@H](Cc2ccc(O)cc2)NC(=O)[C@H](N)CCCCN)C(=O)N[C@@H](Cc2ccccc2)C(=O)N[C@H](Cc2c[nH]c3ccccc23)C(=O)N[C@@H](CCCCN)C(=O)N[C@@H]([C@@H](C)O)C(=O)N1)C(N)=O` [JF-05-85, D-Lys-Tyr-Lys-D-Tyr-D-Lys-Tyr-Lys-c[Cys-Phe-D-Trp-Lys-Thr-Cys]-Thr-NH2] (H-[dK]YK[dY][dK]YKCF[dW]KTCT-NH2; disulfide 8-13): the Kd is 16.9 nM in test [1]; 369 nM in test [2]; 15.1 nM in test [3]; 17.3 nM in test [4]; 0.38 nM in test [5].
For `C[C@@H](O)[C@H](NC(=O)[C@@H]1CSSC[C@H](NC(=O)[C@H](CCCCN)NC(=O)[C@H](Cc2ccc(N)cc2)NC(=O)[C@H](CCCCN)NC(=O)[C@H](Cc2ccc(N)cc2)NC(=O)[C@H](N)CCCCN)C(=O)N[C@@H](Cc2ccccc2)C(=O)N[C@H](Cc2c[nH]c3ccccc23)C(=O)N[C@@H](CCCCN)C(=O)N[C@@H]([C@@H](C)O)C(=O)N1)C(N)=O` [JF-06-31, D-Lys-Pap-Lys-Pap-Lys-c[Cys-Phe-D-Trp-Lys-Thr-Cys]-Thr-NH2] (H-[dK][Phe(4-NH2)]K[Phe(4-NH2)]KCF[dW]KTCT-NH2; disulfide 6-11), the Kd in test [1] was 1.5 nM; in test [2], greater than 1000 nM; in test [3] it was 20.8 nM; in test [4], 3 nM; in test [5], 0.09 nM.
As to `C[C@@H](O)[C@H](NC(=O)[C@@H]1CSSC[C@H](NC(=O)[C@@H](CCCCN)NC(=O)[C@@H](Cc2ccc(O)cc2)NC(=O)[C@@H](CCCCN)NC(=O)[C@@H](Cc2ccc(O)cc2)NC(=O)[C@H](N)CCCCN)C(=O)N[C@@H](Cc2ccccc2)C(=O)N[C@H](Cc2c[nH]c3ccccc23)C(=O)N[C@@H](CCCCN)C(=O)N[C@@H]([C@@H](C)O)C(=O)N1)C(N)=O` [JF-06-44, D-Lys-D-Tyr-D-Lys-D-Tyr-D-Lys-c[Cys-Phe-D-Trp-Lys-Thr-Cys]-Thr-NH2] (H-[dK][dY][dK][dY][dK]CF[dW]KTCT-NH2; disulfide 6-11), the equilibrium dissociation constant (Kd) is 3.8 nM in test [1], 0.91 nM in test [3], 17 nM in test [4] and 0.87 nM in test [5].
Take `C[C@@H](O)[C@H](NC(=O)[C@@H]1CSSC[C@H](NC(=O)[C@H](CCN)NC(=O)[C@H](Cc2ccc(O)cc2)NC(=O)[C@H](CCN)NC(=O)[C@H](Cc2ccc(O)cc2)NC(=O)[C@@H](N)CCN)C(=O)N[C@@H](Cc2ccccc2)C(=O)N[C@H](Cc2c[nH]c3ccccc23)C(=O)N[C@@H](CCCCN)C(=O)N[C@@H]([C@@H](C)O)C(=O)N1)C(N)=O` [JF-06-45, Dab-Tyr-Dab-Tyr-Dab-c[Cys-Phe-D-Trp-Lys-Thr-Cys]-Thr-NH2] (H-[Dab]Y[Dab]Y[Dab]CF[dW]KTCT-NH2; disulfide 6-11): the dissociation constant Kd in test [1] is 6.2 nM; in test [2] it was greater than 1000 nM; in test [3], 22.7 nM; in test [4] it was 115 nM; in test [5], 1.37 nM.
The like results for `C[C@@H](O)[C@H](NC(=O)[C@@H]1CSSC[C@H](NC(=O)[C@@H](CCCCN)NC(=O)[C@@H](Cc2ccc(O)cc2)NC(=O)[C@H](N)CCCCN)C(=O)N[C@@H](Cc2ccccc2)C(=O)N[C@H](Cc2c[nH]c3ccccc23)C(=O)N[C@@H](CCCCN)C(=O)N[C@@H]([C@@H](C)O)C(=O)N1)C(N)=O` [JF-06-50, D-Lys-D-Tyr-D-Lys-c[Cys-Phe-D-Trp-Lys-Thr-Cys]-Thr-NH2] (H-[dK][dY][dK]CF[dW]KTCT-NH2; disulfide 4-9) were, in that order, 20.9 nM, greater than 1000 nM, 4.87 nM, 20 nM and 1.96 nM.
